Measured values as given in US20040180959A1, “Gabapentin analogues for fibromy algia and concomitant disorders” (priority 2002, published 2004).

Experiments:
Type in all cases: in vivo
mice = assay: Inverted Screen Test to assess coordination; conditions: doses up to 100 mg/kg PO, immediately following the TST, 1-minute trial
Method: Immediately following the TST, mice were also tested in the Inverted Screen Test to assess coordination. Animals were given a 1-minute trial in which they had to climb to the top of the inverted screen or to simply hang on and not fall off.

CD-1 mice = assay: Tail Suspension Test (TST) in mice; conditions: 2 hours after treatment
Method: The anxiolytic and antidepressant activity of (3S, 4S)-(1-Aminomethyl-3,4-dimethyl-cyclopentyl)-acetic acid (“Compound A”) was assessed using the Tail Suspension Test (TST) in mice, and in the Water-lick (Vogel) Conflict Test (WLC) in rats. The Vogel test is a recognized test procedure for assessing the potential anxiolytic utility. The TST procedure is a behavior despair paradigm used to assess potential antidepressant activity.
The method consisted of suspending mice by a piece of cellophane tape attached to the distal end of the tail for 6 minutes. Animals (CD-1 mice, weighing 22 to 27 g, from Charles River Labs) were tested. The test apparatus was the TST-2™ (ITEM-Labo, Le Kremmlin-Bicetre Cedex, France). Data were analyzed with analysis of variance (ANOVA) and Tukey's Multiple Range Test or Student's t-test.
Compound A was dissolved in water and tested orally as a solution from 0.3 to 100 mg/kg in rats and 3 to 300 mg/kg in mice. Dosages are expressed as the active moiety and were administered in a volume of 1 mL/kg for rats and 10 mL/kg for mice.
The profile of typical […] activity in the TST consists of […]. Compound A and pregabalin were tested concurrently (PO) 2 hours after treatment. Compound A was administered at doses ranging from 3 to 100 mg/kg and pregabalin was tested from 3-300 mg/kg and served as positive control (Table 1). Compound A dose dependently increases immobility with the MED observed at the 3 mg/kg dosage and maximal effects were seen following the 30 mg/kg dose.

Sprague-Dawley rats = assay: Rat model of footpad tactile allodynia from prior injection of acid into the gastrocnemius muscle; conditions: for Mean Paw Withdrawal Threshold before dose (g ± S.E.M.): after acid injection
Method: A rat model of persistent mechanical allodynia has been developed that is consistent with the muscle tenderness found in these patients. […] This model was utilized to evaluate compound A for its ability to inhibit allodynia.
On Day 0, male Sprague-Dawley rats (˜200 g body weight) in their dark cycle were placed in suspended wire-bottom cages and allowed to acclimate for 0.5 hours. […] Von Frey hairs were applied to the plantar surface for up to 6 seconds, and a flinching of the paw during that time frame was considered a positive response. After assessment, the right gastrocnemius muscle was shaved, swabbed with alcohol, and injected with 0.1 mL of 0.9% NaCl solution acidified to pH 4 with HCl. The injection was repeated on Day 5. Animals were manipulated with a dynamic plantar aesthesiometer (Ugo Basile, Comerio-Varese, Italy) on Days 6, 7, and 8 to facilitate induction of the allodynia. To screen the rats for the development of allodynia, the 15.1 g Von Frey hair was applied to the ipsilateral paw on Day 11. Positive responders from that test were included in the compound evaluation study. On Day 12 (the day of peak allodynia), animals were assigned into treatment groups, and then their ipsilateral paw withdrawal thresholds were determined to establish the allodynia (reduction in paw withdrawal threshold) compared to baseline values. Rats were then orally dosed with 10 mL/kg vehicle (0.5% hydroxypropyl-methylcellulose/0.2% Tween 80) or the indicated dose of compound A. Paw withdrawal thresholds were reassessed by Von Frey hairs in blinded fashion 2 hours after dosing for the dose-response study, and 2, 5, 8, and 24 hours after dosing in the time course experiment. The inhibition of allodynia was determined for each animal by dividing the increase in paw withdrawal threshold after treatment by the difference between baseline and pretreatment paw withdrawal values. This fraction was then converted to percent inhibition by multiplying by 100.

[1] = 10 mg/kg oral, 2 hours after treatment (Table II)
[2] = 10 mg/kg oral, 2 hr after dose (Table I)
[3] = 10 mg/kg oral, 5 hours after treatment
[4] = 10 mg/kg oral, 8 hours after treatment
[5] = 10 mg/kg oral, 24 hours after treatment

- Screen fall-off (mice): did not cause animals to fall off
Structure (SMILES): C[C@H]1CC(CN)(CC(=O)O)C[C@@H]1C [Compound A, (3S, 4S)-(1-Aminomethyl-3,4-dimethyl-cyclopentyl)-acetic acid]
- Immobility, % Percent of control (CD-1 mice; 3 mg/kg PO): 126.8 ± 7.0 %
- Power of Movement, % Percent of control (CD-1 mice; 3 mg/kg PO): 70.7 ± 10.3%
- Immobility, % Percent of control (CD-1 mice; 10 mg/kg PO): 143.7 ± 11.0 %
- Power of Movement, % Percent of control (CD-1 mice; 10 mg/kg PO): 60.8 ± 11.4%
- Immobility, % Percent of control (CD-1 mice; 30 mg/kg PO): 185.9 ± 7.0 %
- Power of Movement, % Percent of control (CD-1 mice; 30 mg/kg PO): 46.4 ± 12.3 %
- Immobility, % Percent of control (CD-1 mice; 100 mg/kg PO): 182.4 ± 5.9 %
- Power of Movement, % Percent of control (CD-1 mice; 100 mg/kg PO): 50.5 ± 18.3 %
- Dose of maximal effects on immobility (CD-1 mice; PO): 30 mg/kg
- MED for increasing immobility (CD-1 mice; PO): 3 mg/kg
- Power of movement parameter (effect in words) (CD-1 mice; PO): decreased at the 30 and 100 mg/kg dosages
- Mean Paw Withdrawal Threshold before dose (g ± S.E.M.) (Sprague-Dawley rats; 3 mg/kg group, before oral dose): 6.3 ± 0.8 g
- Mean % Inhibition of Allodynia (Sprague-Dawley rats; 3 mg/kg oral, 2 hr after dose): 33%
- Mean Paw Withdrawal Threshold 2 hr after dose (g ± S.E.M.) (Sprague-Dawley rats; 3 mg/kg oral, 2 hr after dose): 11.4 ± 1.7 g
- Mean Paw Withdrawal Threshold (g ± S.E.M.) (Sprague-Dawley rats; 10 mg/kg group, Prior to Treatment (Table II)): 6.5 ± 0.9 g
- Mean Paw Withdrawal Threshold before dose (g ± S.E.M.) (Sprague-Dawley rats; 10 mg/kg group, before oral dose (Table I)): 6.2 ± 1.0 g
- Efficacy sustained throughout observation period after dosing (Sprague-Dawley rats; 10 mg/kg oral): ≥ 24 h
- Mean % Inhibition of Allodynia (Sprague-Dawley rats; [1]): 60% ± 10
- Mean Paw Withdrawal Threshold after treatment (g ± S.E.M.) (Sprague-Dawley rats; [1]): 16.0 ± 1.4 g
- Mean % Inhibition of Allodynia (Sprague-Dawley rats; [2]): 72%
- Mean Paw Withdrawal Threshold 2 hr after dose (g ± S.E.M.) (Sprague-Dawley rats; [2]): 17.4 ± 1.5 g
- Mean % Inhibition of Allodynia (Sprague-Dawley rats; [3]): 62% ± 10
- Mean Paw Withdrawal Threshold after treatment (g ± S.E.M.) (Sprague-Dawley rats; [3]): 15.2 ± 1.8 g
- Mean % Inhibition of Allodynia (Sprague-Dawley rats; [4]): 31% ± 12
- Mean Paw Withdrawal Threshold after treatment (g ± S.E.M.) (Sprague-Dawley rats; [4]): 9.9 ± 2.0 g
- Mean % Inhibition of Allodynia (Sprague-Dawley rats; [5]): 46% ± 17
- Mean Paw Withdrawal Threshold after treatment (g ± S.E.M.) (Sprague-Dawley rats; [5]): 13.3 ± 2.8 g
- Minimum effective dose for attenuating allodynia (Sprague-Dawley rats; oral, 2 hours after dosing): 10 mg/kg
